This note sets out measurements from US11572399B2, “Long-acting GIP peptide analogues” (University of Copenhagen, priority 2017, dated 2023).

Where two headings read alike, the source gives them in different places. Peptide text beside a SMILES is read from it. * marks the point of attachment. C16 diacid = O=C(O)CCCCCCCCCCCCCCC(=O)*

Data set [1] addresses T1, human GIP receptor (Homo sapiens, UniProt P48546).
T1 construct: host or cells: COS-7, transient transfection (calcium phosphate), cDNA in pCMV-Script
T1 sequence (P48546 22-466): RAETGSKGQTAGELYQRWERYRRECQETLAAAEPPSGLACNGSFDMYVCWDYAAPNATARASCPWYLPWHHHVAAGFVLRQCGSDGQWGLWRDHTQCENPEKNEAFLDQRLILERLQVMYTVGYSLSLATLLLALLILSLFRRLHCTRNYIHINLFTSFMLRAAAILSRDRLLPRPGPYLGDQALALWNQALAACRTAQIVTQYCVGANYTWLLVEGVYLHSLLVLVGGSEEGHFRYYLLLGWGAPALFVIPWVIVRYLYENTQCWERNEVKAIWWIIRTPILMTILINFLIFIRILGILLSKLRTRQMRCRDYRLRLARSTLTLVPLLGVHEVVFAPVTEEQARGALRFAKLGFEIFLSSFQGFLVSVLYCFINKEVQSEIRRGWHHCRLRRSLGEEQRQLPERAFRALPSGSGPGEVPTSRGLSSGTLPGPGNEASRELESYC
The data set can be described thus: cAMP accumulation assay, antagonism of a GIP-mediated cAMP response (50-80% of max). To be noted: for Fold change of IC50 versus GIP(5-30)NH2: fold change of IC50 from GIP(5-30)NH2. Format: cell-based. The protocol: The day after, the cells were washed twice with Hepes buffered saline (HBS) buffer and incubated with HBS and 1 mM 3-isobutyl-1-methylxanthine (IBMX) for 30 min at 37° C. […] The HitHunter™ cAMP XS assay (DiscoveRx) was carried out according to the manufacturer's instructions.

Data set [2] concerns the target T1, human GIP receptor. The data set can be described thus: cAMP accumulation assay, agonism (ligand alone). The format is cell-based. The following applies: Table 1; for Emax: COS-7, intrinsic cAMP activity.
For data set [3], the target named is T1, human GIP receptor. The data set can be described thus: 125I-human GIP competition binding assay, in the presence and absence of 2% HSA.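 For all read-outs here: nonspecific binding taken as radioligand bound to untransfected cells, IC50 obtained from nonlinear regression fits.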 To be noted: for Fold change HSA (2%)/Casein (0.1%): IC50 (plus HSA)/IC50 (minus HSA); for Binding (+/−HSA) Fold: fold change +HSA/−HSA.
Procedure: Transient transfection of the COS-7 cells for cAMP accumulation and competition binding was performed using the calcium phosphate precipitation method with the addition of chloroquine^46-47.
Transient transfected COS-7 cells expressing the human GIP receptor were seeded in clear 96-well plates the day after transfection using a number of cells/well that obtained 5-10% specific binding of the added radioactive ligand. The following day, cells were assayed by competition binding for 3 h at 4° C. using 15-40 pM 125 I-human GIP as well as increasing concentrations unlabeled ligand in 50 mM Hepes buffer (pH 7.2) in the presence and absence of 2% HSA. After incubation, the cells were washed twice in ice-cold binding buffer (+/−2% HSA) and lysed using 200 mM NaOH with 1% SDS for 30 min. Nonspecific binding was determined as the binding of radioactive ligand to untransfected cells.
IC50, EC50, and Ki values were determined by nonlinear regression. […] Ki values were based on the formula for one class of binding sites in homologous competition binding studies and the Cheng Prussoffs formula, respectively (DeBlasi et al., 1989). To determine the HSA binding potential, the fold change in affinity (as determined by IC50) was calculated as IC50 (plus HSA)/IC50 (minus HSA).
[4] abbreviates: antagonism of GIP-mediated cAMP response, COS-7 cells, read-out: cAMP accumulation IC50.
[5] abbreviates: transiently transfected COS-7 cells, Table 1 and text, read-out: cAMP antagonism nM (IC50, antagonistic potency).
Setting [6] is: heterologous competition binding, transiently transfected COS-7 cells expressing the human GIP receptor, read-out: Binding.
The mark [7] stands for this setting: given as log EC50 (negative sign), read-out: cAMP agonism EC50 (log) (converted).

Turning to `CC[C@H](C)[C@H](NC(=O)[C@H](CO)NC(=O)[C@H](Cc1ccc(O)cc1)NC(=O)[C@H](CC(=O)O)NC(=O)[C@H](CO)NC(=O)[C@@H](NC(=O)[C@H](Cc1ccccc1)NC(=O)[C@@H](N)[C@@H](C)O)[C@@H](C)CC)C(=O)N[C@@H](C)C(=O)N[C@@H](CCSC)C(=O)N[C@@H](CC(=O)O)C(=O)N[C@@H](CCCCN)C(=O)N[C@@H](CCCCNC(=O)CCCCCCCCCCCCCCC(=O)O)C(=O)N[C@@H](Cc1c[nH]cn1)C(=O)N[C@@H](CCC(N)=O)C(=O)N[C@@H](CCC(N)=O)C(=O)N[C@@H](CC(=O)O)C(=O)N[C@@H](Cc1ccccc1)C(=O)N[C@H](C(=O)N[C@@H](CC(N)=O)C(=O)N[C@@H](Cc1c[nH]c2ccccc12)C(=O)N[C@@H](CC(C)C)C(=O)N[C@@H](CC(C)C)C(=O)N[C@@H](C)C(=O)N[C@@H](CCC(N)=O)C(=O)N[C@@H](CCCCN)C(N)=O)C(C)C` [AT178, [hGIP(5-30)NH2[I17K]-C16diacid/17]] (H-TFISDYSIAMDKK(C16 diacid)HQQDFVNWLLAQK-NH2; N-terminus assumed), the IC50 on human GIP receptor [1] (setting [4]) is 27.5 nM; at human GIP receptor [1] (setting [5]) it was 33 nM; at human GIP receptor [3] (binding in 0.1% casein (absence of HSA), log value, read-out: logIC50 0.1% casein (converted)), 63.1 nM; on human GIP receptor [3] (setting [6]) it was 66 nM. Besides, the “Fold change of IC50 versus GIP(5-30)NH2” value at human GIP receptor [1] turned out to be 1. The Emax at human GIP receptor [2] (COS-7 cells) amounted to 0%. Besides, the “Fold change HSA (2%)/Casein (0.1%)” value on human GIP receptor [3] worked out at 3.0. Moreover, the “Binding (+/−HSA) Fold” value at human GIP receptor [3] came out at 4.5.
For `CC[C@H](C)[C@H](NC(=O)[C@H](CO)NC(=O)[C@H](Cc1ccc(O)cc1)NC(=O)[C@H](CC(=O)O)NC(=O)[C@H](CO)NC(=O)[C@@H](NC(=O)[C@H](Cc1ccccc1)NC(=O)[C@@H](N)[C@@H](C)O)[C@@H](C)CC)C(=O)N[C@@H](C)C(=O)N[C@@H](CCSC)C(=O)N[C@@H](CC(=O)O)C(=O)N[C@@H](CCCCN)C(=O)N[C@H](C(=O)N[C@@H](Cc1c[nH]cn1)C(=O)N[C@@H](CCCCNC(=O)CCCCCCCCCCCCCCC(=O)O)C(=O)N[C@@H](CCC(N)=O)C(=O)N[C@@H](CC(=O)O)C(=O)N[C@@H](Cc1ccccc1)C(=O)N[C@H](C(=O)N[C@@H](CC(N)=O)C(=O)N[C@@H](Cc1c[nH]c2ccccc12)C(=O)N[C@@H](CC(C)C)C(=O)N[C@@H](CC(C)C)C(=O)N[C@@H](C)C(=O)N[C@@H](CCC(N)=O)C(=O)N[C@@H](CCCCN)C(N)=O)C(C)C)[C@@H](C)CC` [AT179, [hGIP(5-30)NH2[Q19K]-C16diacid/19]] (H-TFISDYSIAMDKIHK(C16 diacid)QDFVNWLLAQK-NH2; N-terminus assumed), at human GIP receptor [1], the “Fold change of IC50 versus GIP(5-30)NH2” value stood at 2.1. Also, the IC50 at human GIP receptor [1] (setting [5]) was 89 nM. Moreover, the Emax at human GIP receptor [2] (COS-7 cells) was determined as 32%. Further, at human GIP receptor [2] (setting [7]), the EC50 is 100 nM. For the same molecule, at human GIP receptor [3], the “Fold change HSA (2%)/Casein (0.1%)” value came out at 3.6 and the “Binding (+/−HSA) Fold” value is reported as 6.3. Moreover, the Ki at human GIP receptor [3] (presence of 2% HSA) is 2380 nM.
Take `CC[C@H](C)[C@H](NC(=O)[C@H](CO)NC(=O)[C@H](Cc1ccc(O)cc1)NC(=O)[C@H](CC(=O)O)NC(=O)[C@H](CO)NC(=O)[C@@H](NC(=O)[C@H](Cc1ccccc1)NC(=O)[C@@H](N)[C@@H](C)O)[C@@H](C)CC)C(=O)N[C@@H](C)C(=O)N[C@@H](CCSC)C(=O)N[C@@H](CC(=O)O)C(=O)N[C@@H](CCCCN)C(=O)N[C@H](C(=O)N[C@@H](Cc1c[nH]cn1)C(=O)N[C@@H](CCC(N)=O)C(=O)N[C@@H](CCCCNC(=O)CCCCCCCCCCCCCCC(=O)O)C(=O)N[C@@H](CC(=O)O)C(=O)N[C@@H](Cc1ccccc1)C(=O)N[C@H](C(=O)N[C@@H](CC(N)=O)C(=O)N[C@@H](Cc1c[nH]c2ccccc12)C(=O)N[C@@H](CC(C)C)C(=O)N[C@@H](CC(C)C)C(=O)N[C@@H](C)C(=O)N[C@@H](CCC(N)=O)C(=O)N[C@@H](CCCCN)C(N)=O)C(C)C)[C@@H](C)CC` [AT180, [hGIP(5-30)NH2[Q20K]-C16diacid/20]] (H-TFISDYSIAMDKIHQK(C16 diacid)DFVNWLLAQK-NH2; N-terminus assumed): at human GIP receptor [1], the “Fold change of IC50 versus GIP(5-30)NH2” value worked out at 1.7. In addition, the IC50 on human GIP receptor [1] (setting [5]) was 37 nM. For the same molecule, the Emax on human GIP receptor [2] (COS-7 cells) was determined as 0%. Besides, at human GIP receptor [3], the “Fold change HSA (2%)/Casein (0.1%)” value was found to be 3.7 and the “Binding (+/−HSA) Fold” value came to 6.4.
For the molecule `CC[C@H](C)[C@H](NC(=O)[C@H](CO)NC(=O)[C@H](Cc1ccc(O)cc1)NC(=O)[C@H](CC(=O)O)NC(=O)[C@H](CO)NC(=O)[C@@H](NC(=O)[C@H](Cc1ccccc1)NC(=O)[C@@H](N)[C@@H](C)O)[C@@H](C)CC)C(=O)N[C@@H](C)C(=O)N[C@@H](CCSC)C(=O)N[C@@H](CC(=O)O)C(=O)N[C@@H](CCCCN)C(=O)N[C@H](C(=O)N[C@@H](Cc1c[nH]cn1)C(=O)N[C@@H](CCC(N)=O)C(=O)N[C@@H](CCC(N)=O)C(=O)N[C@@H](CCCCNC(=O)CCCCCCCCCCCCCCC(=O)O)C(=O)N[C@@H](Cc1ccccc1)C(=O)N[C@H](C(=O)N[C@@H](CC(N)=O)C(=O)N[C@@H](Cc1c[nH]c2ccccc12)C(=O)N[C@@H](CC(C)C)C(=O)N[C@@H](CC(C)C)C(=O)N[C@@H](C)C(=O)N[C@@H](CCC(N)=O)C(=O)N[C@@H](CCCCN)C(N)=O)C(C)C)[C@@H](C)CC` [AT181, [hGIP(5-30)NH2[D21K]-C16diacid/21]] (H-TFISDYSIAMDKIHQQK(C16 diacid)FVNWLLAQK-NH2; N-terminus assumed), at human GIP receptor [1], the “Ability to antagonize the GIP-mediated cAMP response (in words)” value is listed as “highest antagonistic potencies” and the “Fold change of IC50 versus GIP(5-30)NH2” value stood at 0.5. For the same molecule, the IC50 on human GIP receptor [1] (setting [5]) turned out to be 16 nM. At human GIP receptor [2] (COS-7 cells), the Emax came out at 9%. Moreover, on human GIP receptor [2] (COS-7 cells, read-out: cAMP agonism nM (EC50)), the concentration for a half-maximal effect (EC50) was determined as 2 nM. Further, at human GIP receptor [3], the “Fold change HSA (2%)/Casein (0.1%)” value is 5.2 and the “Binding (+/−HSA) Fold” value is reported as 3.6. Further, the IC50 at human GIP receptor [3] (setting [6]) was determined as 48 nM. Also, the “Fold change in affinity, IC50 (plus HSA)/IC50 (minus HSA)” value at human GIP receptor [3] (presence vs absence of 2% HSA, proxy for albumin binding) was 5.2 fold.
On to `CC[C@H](C)[C@H](NC(=O)[C@H](CO)NC(=O)[C@H](Cc1ccc(O)cc1)NC(=O)[C@H](CC(=O)O)NC(=O)[C@H](CO)NC(=O)[C@@H](NC(=O)[C@H](Cc1ccccc1)NC(=O)[C@@H](N)[C@@H](C)O)[C@@H](C)CC)C(=O)N[C@@H](C)C(=O)N[C@@H](CCSC)C(=O)N[C@@H](CC(=O)O)C(=O)N[C@@H](CCCCN)C(=O)N[C@H](C(=O)N[C@@H](Cc1c[nH]cn1)C(=O)N[C@@H](CCC(N)=O)C(=O)N[C@@H](CCC(N)=O)C(=O)N[C@@H](CC(=O)O)C(=O)N[C@@H](CCCCNC(=O)CCCCCCCCCCCCCCC(=O)O)C(=O)N[C@H](C(=O)N[C@@H](CC(N)=O)C(=O)N[C@@H](Cc1c[nH]c2ccccc12)C(=O)N[C@@H](CC(C)C)C(=O)N[C@@H](CC(C)C)C(=O)N[C@@H](C)C(=O)N[C@@H](CCC(N)=O)C(=O)N[C@@H](CCCCN)C(N)=O)C(C)C)[C@@H](C)CC` [AT182, [hGIP(5-30)NH2[F22K]-C16diacid/22]] (H-TFISDYSIAMDKIHQQDK(C16 diacid)VNWLLAQK-NH2; N-terminus assumed), for which the values for the IC50 on human GIP receptor [1] (setting [4]), at human GIP receptor [1] (setting [5]) and at human GIP receptor [3] (setting [6]) were 603 nM, 634 nM and 962 nM, respectively. The “Fold change of IC50 versus GIP(5-30)NH2” value at human GIP receptor [1] is listed as 21.9. For the same molecule, the Emax on human GIP receptor [2] (COS-7 cells) worked out at 13%. Further, the EC50 on human GIP receptor [2] (setting [7]) was 1000 nM. The “Fold change HSA (2%)/Casein (0.1%)” value on human GIP receptor [3] worked out at 3.0. Further, the “Binding (+/−HSA) Fold” value on human GIP receptor [3] is 1.4.
